Test results reported in patent EP2857388A1, “Azoles containing sulfone” (Grünenthal GmbH, priority 2013, dated 2015).

Biological target: T1, human B1R (Homo sapiens, UniProt P46663)
T1 construct: expressed in transfected cells; host or cells: CHO K1 cells (Chinese Hamster Ovary), stably transfected
T1 sequence (P46663 1-353): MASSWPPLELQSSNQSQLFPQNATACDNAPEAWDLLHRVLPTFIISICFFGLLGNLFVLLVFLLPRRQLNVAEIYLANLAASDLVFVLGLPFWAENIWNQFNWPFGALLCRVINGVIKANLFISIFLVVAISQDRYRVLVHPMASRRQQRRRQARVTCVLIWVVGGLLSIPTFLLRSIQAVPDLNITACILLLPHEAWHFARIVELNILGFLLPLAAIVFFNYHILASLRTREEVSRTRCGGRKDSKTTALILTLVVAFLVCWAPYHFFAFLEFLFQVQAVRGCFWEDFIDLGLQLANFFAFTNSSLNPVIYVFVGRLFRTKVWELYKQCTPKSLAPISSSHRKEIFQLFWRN
Experiment: Functional assay at bradykinin receptor 1 (B1R): Ca2+ fluorescence (Fluo-4) in FLIPR/Novostar, antagonist mode
Assay type: cell-based
Settings: test substance 10 µM; CHO K1 cells stably transfected with human B1R gene (hB1R-Zellen); agonist Lys-Des-Arg9-Bradykinin at EC80; % inhibition relative to maximal achievable inhibition; read-out: % Inhibierung (human B1R) bei 10 µM
Method in brief: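 Antagonism read as suppression of the Ca2+ rise in Fluo-4-loaded, hB1R-transfected CHO K1 cells when Lys-Des-Arg9-bradykinin (EC80) follows a 6–20 min compound preincubation. Maximal fluorescence counts, measured on FLIPR or Novostar, yield % inhibition relative to maximum; IC50 values come from concentration series run in duplicate or triplicate.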

| inhibition at 10 µM | Compound |
| --- | --- |
| 99% | COc1cc(C)c(S(=O)(=O)Cc2cn(CC(=O)NC3CCNCC3)nn2)c(C)c1 [CC-182, 2-[4-[[(4-Methoxy-2,6-dimethyl-phenyl)sulfonyl]-methyl]-1H-[1,2,3]triazol-1-yl]-N-piperidin-4-yl-acetamid] |
| 100% | COc1cc(C)c(S(=O)(=O)Cc2cn(CC(=O)NC3CCN(C)CC3(C)C)nn2)c(C)c1 (stereo not drawn) [CC-183, 2-[4-[[(4-Methoxy-2,6-dimethyl-phenyl)sulfonyl]-methyl]-1H-[1,2,3]triazol-1-yl]-N-(1,3,3-trimethyl-piperidin-4-yl)-acetamid] |
| 100% | COc1cc(C)c(S(=O)(=O)Cc2c(C)nn(CC(=O)NC3CCN(C)CC3(C)C)c2C)c(C)c1 (stereo not drawn) [CC-184, 2-[4-[[(4-Methoxy-2,6-dimethyl-phenyl)sulfonyl]-methyl]-3,5-dimethyl-1H-pyrazol-1-yl]-N-(1,3,3-trimethyl-piperidin-4-yl)-acetamid] |
| 72% | COc1cc(C)c(S(=O)(=O)Cc2c(C)nn(CC(=O)N(C)C3CCNCC3(C)C)c2C)c(C)c1 (stereo not drawn) [CC-185, N-(3,3-Dimethyl-piperidin-4-yl)-2-[4-[[(4-methoxy-2,6-dimethyl-phenyl)sulfonyl]-methyl]-3,5-dimethyl-1 H-pyrazol-1-yl]-N-methyl-acetamid] |
| 100% | COc1cc(C)c(S(=O)(=O)Cc2cn(CC(=O)N(C3CCC(N(C)C)CC3)C3CC3)nn2)c(C)c1 (stereo not drawn) [CC-186, N-Cyclopropyl-N-(4-dimethylamino-cyclohexyl)-2-[4-[[(4-methoxy-2,6-dimethyl-phenyl)sulfonyl]-methyl]-1H-[1,2,3]triazol-1-yl]-acetamid] |
| 57% | COc1cc(C)c(S(=O)(=O)Cc2cc(C)n(CC(=O)NC3CCN(C)CC3(C)C)n2)c(C)c1 (stereo not drawn) [CC-188, 2-[3-[[(4-Methoxy-2,6-dimethyl-phenyl)sulfonyl]-methyl]-5-methyl-1H-pyrazol-1-yl]-N-(1,3,3-trimethyl-piperidin-4-yl)-acetamid] |
| 99% | COc1cc(C)c(S(=O)(=O)Cc2noc(C(=O)NC3CCN(c4ccncc4)CC3)n2)c(C)c1 [SC-01, 3-[[(4-Methoxy-2,6-dimethyl-phenyl)sulfonyl]-methyl]-N-(1-pyridin-4-yl-piperidin-4-yl)-[1,2,4]oxadiazol-5-carbonsäure amid] |
| 100% | COc1cc(C)c(S(=O)(=O)Cc2noc(C(=O)N3CC4(CCN(c5ccncc5)CC4)C3)n2)c(C)c1 [SC-02, [3-[[(4-Methoxy-2,6-dimethyl-phenyl)sulfonyl]-methyl]-[1,2,4]oxadiazol-5-yl]-(7-pyridin-4-yl-2,7-diazaspiro[3.5]nonan-2-yl)-methanon] |
| 98% | COc1cc(C)c(S(=O)(=O)Cc2noc(C(=O)N3CCC(Oc4ccncc4)C3)n2)c(C)c1 (stereo not drawn) [SC-03, [3-[[(4-Methoxy-2,6-dimethyl-phenyl)sulfonyl]-methyl]-[1,2,4]oxadiazol-5-yl]-(3-pyridin-4-yloxy-pyrrolidin-1-yl)-methanon] |
| 100% | COc1cc(C)c(S(=O)(=O)Cc2noc(C(=O)N3CCC4(CCN(c5ccncc5)CC4)C3)n2)c(C)c1 [SC-04, [3-[[(4-Methoxy-2,6-dimethyl-phenyl)sulfonyl]-methyl]-[1,2,4]oxadiazol-5-yl]-(8-pyridin-4-yl-3,8-diazaspiro[4.5]decan-3-yl)-methanon] |
| 100% | COc1cc(C)c(S(=O)(=O)Cc2noc(C(=O)N3CCC4(CCN(c5ccncc5)C4)C3)n2)c(C)c1 (stereo not drawn) [SC-05, [3-[[(4-Methoxy-2,6-dimethyl-phenyl)sulfonyl]-methyl]-[1,2,4]oxadiazol-5-yl]-(8-pyridin-4-yl-3,8-diazaspiro[4.4]nonan-3-yl)-methanon] |
| 94% | COc1cc(C)c(S(=O)(=O)Cc2noc(C(=O)NC3CCN(c4ccc(C(F)(F)F)cn4)C3)n2)c(C)c1 (stereo not drawn) [SC-06, 3-[[(4-Methoxy-2,6-dimethyl-phenyl)sulfonyl]-methyl]-N-[1-[5-(trifluormethyl)-pyridin-2-yl]-pyrrolidin-3-yl]-[1,2,4]oxadiazol-5-carbonsäure amid] |
| 100% | COc1cc(C)c(S(=O)(=O)Cc2noc(C(=O)N3CCC(CN4CCN(C)CC4)C3)n2)c(C)c1 (stereo not drawn) [SC-07, [3-[[(4-Methoxy-2,6-dimethyl-phenyl)sulfonyl]-methyl]-[1,2,4]oxadiazol-5-yl]-[3-[(4-methyl-piperazin-1-yl)-methyl]-pyrrolidin-1-yl]-methanon] |
| 99% | COc1cc(C)c(S(=O)(=O)Cc2noc(C(=O)N3CCC(Cc4ccncc4)CC3)n2)c(C)c1 [SC-08, [3-[[(4-Methoxy-2,6-dimethyl-phenyl)sulfonyl]-methyl]-[1,2,4]oxadiazol-5-yl]-[4-(pyridin-4-yl-methyl)-piperidin-1-yl]-methanon] |
| 99% | COc1cc(C)c(S(=O)(=O)Cc2noc(C(=O)N3CCC4(CCC(Oc5ccncc5)CC4)CC3)n2)c(C)c1 [SC-09, [3-[[(4-Methoxy-2,6-dimethyl-phenyl)sulfonyl]-methyl]-[1,2,4]oxadiazol-5-yl]-(9-pyridin-4-yloxy-3-azaspiro[5.5]undecan-3-yl)-methanon] |
| 100% | COc1cc(C)c(S(=O)(=O)Cc2noc(C(=O)N3CCC4(CC3)CCN(c3ccncc3)CC4)n2)c(C)c1 [SC-10, [3-[[(4-Methoxy-2,6-dimethyl-phenyl)sulfonyl]-methyl]-[1,2,4]oxadiazol-5-yl]-(9-pyridin-4-yl-3,9-diazaspiro[5.5]undecan-3-yl)-methanon] |
| 99% | COc1cc(C)c(S(=O)(=O)Cc2noc(CC(=O)N3CCC4(CC3)CCN(c3ccncc3)CC4)n2)c(C)c1 [SC-11, 2-[3-[[(4-Methoxy-2,6-dimethyl-phenyl)sulfonyl]-methyl]-[1,2,4]oxadiazol-5-yl]-1-(9-pyridin-4-yl-3,9-diazaspiro[5.5]undecan-3-yl)-ethanon] |
| 100% | COc1cc(C)c(S(=O)(=O)Cc2noc(C(=O)NC3CCN(c4ccncc4)CC3(C)C)n2)c(C)c1 (stereo not drawn) [SC-12, N-(3,3-Dimethyl-1-pyridin-4-yl-piperidin-4-yl)-3-[[(4-methoxy-2,6-dimethyl-phenyl)sulfonyl]-methyl]-[1,2,4]oxadiazol-5-carbonsäure amid] |
| 100% | COc1cc(C)c(S(=O)(=O)Cc2noc(CC(=O)NC3CCC(N4CCN(C)CC4)CC3(C)C)n2)c(C)c1 (stereo not drawn) [SC-13, N-[2,2-Dimethyl-4-(4-methyl-piperazin-1-yl)-cyclohexyl]-2-[3-[[(4-methoxy-2,6-dimethyl-phenyl)sulfonyl]-methyl]-[1,2,4]oxadiazol-5-yl]-acetamid] |
| 100% | COc1cc(C)c(S(=O)(=O)Cc2noc(CC(=O)NC3CCN(c4ccncc4)CC3(C)C)n2)c(C)c1 (stereo not drawn) [SC-14, N-(3,3-Dimethyl-1-pyridin-4-yl-piperidin-4-yl)-2-[3-[[(4-methoxy-2,6-dimethyl-phenyl)sulfonyl]-methyl]-[1,2,4]oxadiazol-5-yl]-acetamid] |
| 99% | COc1cc(C)c(S(=O)(=O)Cc2noc(C(=O)NC3CCC(N4CCN(C)CC4)CC3(C)C)n2)c(C)c1 (stereo not drawn) [SC-16, N-[2,2-Dimethyl-4-(4-methyl-piperazin-1-yl)-cyclohexyl]-3-[[(4-methoxy-2,6-dimethyl-phenyl)-sulfonyl]-methyl]-[1,2,4]oxadiazol-5-carbonsäure amid] |
